Test results published in US8173133B2, “Acyl pseudodipeptides which carry a functionalized auxiliary arm” (OM Pharma, priority 1999, dated 2012).

How the values were obtained:
K562 cells = experiment: activation of NK cell cytotoxicity against K562 target cells (LDH release); assay type: cell-based, human
Procedure: PBMC were recovered from buffy coats according to the procedure previously described in example 4.6. […] Cells were incubated under such conditions for 24 hours. K562 cells (human leukemia cell line, ATCC #CCL 243, 20110-2209 Manassas (Va.), U.S.A.) were maintained in culture using RPMI medium containing 10% FCS and subjected to 2 passages per week.
In order to make cytotoxicity measurement, PBMC and K562 cells were washed twice in HBSS and resuspended in Phenol Red-free RPMI medium containing 5% FCS. PBMC were divided into a round bottom 96-well plate so as to achieve a PBMC/target ratio of 20/1, 10/1 and 5/1 in 50 μl volume. 5000 K562 cells (target) were added in each well using 50 μl of Phenol Red-free RPMI. Final volume was 100 μl. The plate was centrifuged to promote contact then incubated at 37° C. for 4 hours.
Cytotoxicity was assayed using a non radioactive CytoTox 96 kit based on measuring LDH release during cell lysis (kit #G1780, batch #124100, Promega, Madison, Wis.) according to the supplier's instructions.
The percentage of cytotoxicity was calculated according to the following equation: […]

(NANP)6P2P30 antigen = experiment: (NANP)6P2P30 murine immunization model: anti-(NANP)6P2P30 IgG (ELISA); assay type: in vivo, BALB/c mice; settings: two s.c. shots, serum at 5 weeks, FIG. 79
[1] = test system: murine predendritic cells (CD-DM); experiment: maturation of murine predendritic cells into dendritic cells (flow cytometry of surface markers); assay type: cell-based, C57BI/6 mice; settings: for CD40 MFI: 48 hour
Procedure: The marrow was aspirated from the femur and tibia bones of (C57BI/6, 6 to 8 week-old) mice. The marrow suspension was screened through a 70 μm cell sieve in order to obtain a single cell suspension. Marrow cells were resuspended into Isocove's modified Dulbecco medium (IMDM) supplemented with 10% of heat inactivated foetal calf serum (iFCS) and antibiotics. Cells were incubated overnight at 37° C., under CO2 and a moisture saturated atmosphere, inside 6-well microtiter plates. Next day (day 0), non adherent cells were collected and washed. Viable cells were counted by trypan blue dye exclusion test. Cell concentration was adjusted to 2×10^5 cells/ml in IMDM containing […] and 20 ng/ml of murine recombinant IL-4 (rmIL-4) and plates were further incubated. On the 3rd day, there were added freshly prepared mGM-CSF and rmIL-4 at a concentration of 10 ng/ml. On the 6th day, non adherent cells were collected, washed and counted by trypan blue dye exclusion. Cell concentration was adjusted to 2×10^5 cells/ml in IMDM containing 10 ng/ml of rmGM-CSF and rmIL-4, and plates were further incubated. On the 8th day, non adherent cells made up of both mature and immature dendritic cells (CD-DM) were collected and used in product co-incubation experiments.
After a 48 hour incubation period, cells were collected and stored for flow cytometry analysis Flow cytometry analysis CD-DM were washed with PBS containing 2% iFCS and 0.01% sodium azide (FACS buffer). Then, cells were incubated on ice for 30 minutes with optimal concentrations of anti-CD86 antibody; anti-CD40 antibody, FITC conjugated anti-MCHII antibody, and […]. Then, cells were washed 3 times. Labeling of anti-CD86 and anti-CD40 antibodies was performed by incubating cells on ice for 30 minutes with peroxidase-conjugated donkey anti-rat immunoglobulins. Following incubation, cells were washed and resuspended into FACS medium. Fluorescence was measured with the aid of FACScan® flow cytometry. 15000 pulse events were analyzed per sample. Cells which had been incubated with the conjugate alone were used as a negative control.

HIV-2 ROD = experiment: anti-HIV activity in MT-4 cells (MTT), HIV-2 ROD; assay type: cell-based
Procedure: (§1) T MT-4 lymphocyte cell line which had been transformed into a continuous cell line by an HTLV infection, a virus associated with one form of leukemia, was used to test the antiviral activity (anti-HIV) of AZT- and d4T-conjugated compounds according to the invention, respectively. A characteristic feature of such cells is lack of survival following an HIV infection. The test is based on protection provided by the product (like AZT) against this viral destructive effect. Products were tested in serially diluted solutions in a 96-well plate. In the upper portion of the microplate, products were tested by incubation at various concentrations with cells and virus (in triplicate), so as to determine the concentration of product which affords cell protection against the viral destructive effect. IC50 of the product is taken as the concentration where a 50% loss of viable cell count is recorded. Viable cell count was done with MTT, a yellow tetrazolium compound which undergoes enzymatic reduction (at the mitochondrial level in viable cells) into a purple colored formazan compound. Wells containing viable cells are purple in colour, whereas dead cells give a persistent yellow color. Measurement of optical density (O.D.) allows this effect to be quantified.

[2] = cytotoxicity on virus-free MT-4 cells (MTT); assay type: cell-based; settings: human, MT-4 cells (virus-free)
Procedure: Cytotoxicity of a given product is assessed in the same manner in the lower portion of the plate where the test is conducted by incubating serially diluted products over virus-free cells, to thereby determine the toxic effect of products on cells. The result is given as CC50, i.e. the concentration at which 50% of cells are dead due to product toxicity. Selectivity (selectivity index, SI) of a given product is defined as a CC50/IC50 ratio. This parameter is of great importance since the selectivity index of a fairly efficient product is high.

HIV-1 IIIB = experiment: anti-HIV activity in MT-4 cells (MTT), HIV-1 IIIB; assay type: cell-based
Procedure: as §1

Row | Structure (SMILES) | anti-(NANP)6P2P30 IgG serologic response ((NANP)6P2P30 antigen) | C80 % cells ([1]; 0.1 μg/ml) [%] | C80 MFI ([1]; 0.1 μg/ml) | CD40 % cells ([1]; 0.1 μg/ml) [%] | CD86 % cells ([1]; 0.1 μg/ml) [%] | CD86 MFI ([1]; 0.1 μg/ml) | MHCII % cells ([1]; 0.1 μg/ml) [%] | MHCII MFI ([1]; 0.1 μg/ml) | CD40 MFI ([1]; 0.1 μg/ml) | C80 % cells ([1]; 1 μg/ml) [%] | C80 MFI ([1]; 1 μg/ml) | CD40 % cells ([1]; 1 μg/ml) [%] | CD86 % cells ([1]; 1 μg/ml) [%] | CD86 MFI ([1]; 1 μg/ml) | MHCII % cells ([1]; 1 μg/ml) [%] | MHCII MFI ([1]; 1 μg/ml) | CD40 MFI ([1]; 1 μg/ml) | C80 % cells ([1]; 10 μg/ml) [%] | C80 MFI ([1]; 10 μg/ml) | CD40 % cells ([1]; 10 μg/ml) [%] | also measured
1 | CCCCCCCCCCCC(=O)O[C@H](CCCCCCCCCCC)CC(=O)NC(CCOP(=O)(O)O)C(=O)NCCCC(COC(=O)CCCCC(O)CO)NC(=O)C[C@H](O)CCCCCCCCCCC (stereo partly drawn) [OM-197-FV6, 3-[(R)-dodecanoyloxytetradecanoylamino]-4oxo-5-aza-9-[(R)-3-hydroxytetradecanoylamino]-decan-1,10-diol 1-dihydrogenphate 10-(6,7-dihydroxyheptanoate)] | greatly superior to the one observed when injecting antigen alone | – | – | – | – | – | – | – | – | – | – | – | – | – | – | – | – | – | – | – | NK activity level (K562 cells; 1 μg/ml): comparable or slightly inferior to that induced by LPS; % cytotoxicity (K562 cells; Ratio PBMC:K562 5.1): 0%; Optical density at 490 nm, K562 + PBMC (K562 cells; Ratio PBMC:K562 5.1): 1.4; Optical density at 490 nm, PBMC alone (K562 cells; Ratio PBMC:K562 5.1): 0.079; % cytotoxicity (K562 cells; Ratio PBMC:K562 10.1): 12.9%; Optical density at 490 nm, K562 + PBMC (K562 cells; Ratio PBMC:K562 10.1): 1.65; Optical density at 490 nm, PBMC alone (K562 cells; Ratio PBMC:K562 10.1): 0.087; % cytotoxicity (K562 cells; Ratio PBMC:K562 20.1): 38.8%; Optical density at 490 nm, K562 + PBMC (K562 cells; Ratio PBMC:K562 20.1): 2.1; Optical density at 490 nm, PBMC alone (K562 cells; Ratio PBMC:K562 20.1, stimulus 24 hours): 0.11
2 | CCCCCCCCCCCC(=O)O[C@H](CCCCCCCCCCC)CC(=O)N[C@H](CC(=O)O)C(=O)NCCC[C@H](CO)NC(=O)C[C@H](O)CCCCCCCCCCC [OM-197-MC, N—[(R)-3-dodecanoyloxytetradecanoyl]-D-aspartic acid, α-N-{(4R)-5-hydroxy-4[(R)-3-hydroxytetradecanoylamino]-pentyl}amide] | greatly superior to the one observed when injecting antigen alone | – | – | – | – | – | – | – | – | – | – | – | – | – | – | – | – | – | – | – | –
3 | CCCCCCCCCCCC(=O)O[C@H](CCCCCCCCCCC)CC(=O)N[C@H](CC(=O)O)C(=O)NCCC[C@H](COC(=O)CCCCCN)NC(=O)C[C@H](O)CCCCCCCCCCC [OM-197-MC-AC, N—[(R)-3-dodecanoyloxytetradecanoyl]-D-aspartic acid, α-N-{(4R)-5-(6-aminohexanoyloxy)-4-[(R)-3-hydroxytetradecanoylamino]pentyl}amide] | – | 41 | 66 | 34 | 37 | 3504 | 38 | 1597 | 446 | 47 | 73 | 48 | 45 | 3791 | 45 | 1607 | 493 | 53 | 97 | 55 | CD86 % cells ([1]; 10 μg/ml): 52%; CD86 MFI ([1]; 10 μg/ml): 4162; MHCII % cells ([1]; 10 μg/ml): 49%; MHCII MFI ([1]; 10 μg/ml): 1622; CD40 MFI ([1]; 10 μg/ml): 605
4 | CCCCCCCCCCCC(=O)O[C@H](CCCCCCCCCCC)CC(=O)N[C@H](CC(=O)O)C(=O)NCCC[C@H](COC(=O)CCCCCNC(=O)CCC(=O)OC[C@H]1O[C@@H](n2cc(C)c(=O)[nH]c2=O)C[C@@H]1N=[N+]=[N-])NC(=O)C[C@H](O)CCCCCCCCCCC [OM-197-MC-AC-Succ-AZT] | – | – | – | – | – | – | – | – | – | – | – | – | – | – | – | – | – | – | – | – | IC50 (HIV-2 ROD): 61 nM; CC50 [2]: > 94000 nM; IC50 (HIV-1 IIIB): 51.9 nM
5 | CCCCCCCCCCCC(=O)O[C@H](CCCCCCCCCCC)CC(=O)N[C@H](CC(=O)O)C(=O)NCCC[C@H](COC(=O)CCCCCNC(=O)CCC(=O)OC[C@@H]1C=C[C@H](n2cc(C)c(=O)[nH]c2=O)O1)NC(=O)C[C@H](O)CCCCCCCCCCC [OM-197-MC-AC-Succ-d4T] | – | – | – | – | – | – | – | – | – | – | – | – | – | – | – | – | – | – | – | – | IC50 (HIV-2 ROD): 510 nM; CC50 [2]: ~97000 nM; IC50 (HIV-1 IIIB): 963 nM
6 | CCCCCCCCCCCC(=O)O[C@H](CCCCCCCCCCC)CC(=O)N[C@H](CC(=O)O)C(=O)NCCC[C@H](COC(=O)CCCCC(O)CO)NC(=O)C[C@H](O)CCCCCCCCCCC (stereo partly drawn) [OM-197-MC-FV5, N—[(R)-3-dodecanoyloxytetradecanoylamino]-D-aspartic acid, α-N-{(4R)-5-hydroxy-4-[(R)-3-hydroxytetra-decanoylamino]-pentyl}amide 5-O-(6,7-dihydroxyheptanoate)] | – | 42 | 66 | 33 | 37 | 3437 | 40 | 1689 | 442 | 45 | 84 | 44 | 43 | 3888 | 43 | 1691 | 517 | 48 | 97 | 54 | CD86 % cells ([1]; 10 μg/ml): 51%; CD86 MFI ([1]; 10 μg/ml): 4097; MHCII % cells ([1]; 10 μg/ml): 48%; MHCII MFI ([1]; 10 μg/ml): 1681; CD40 MFI ([1]; 10 μg/ml): 630
